{"source": "patent US20230144436A1", "about": "“MUSCLE TARGETING COMPLEXES AND USES THEREOF FOR TREATING MYOTONIC DYSTROPHY” (Dyne Therapeutics, Inc., priority 2020, published 2023)", "tested_on": "DMPK", "assay": "DMPK knockdown by transfected antisense oligonucleotides in DM1 C15 myotubes at 0.5 nM and 50 nM", "format": "cell-based", "conditions": "72 hours, qPCR; for Percent DMPK Reduction: relative to vehicle control; for Normalized DMPK Remaining: relative to vehicle control = 1.00", "description": "Two hundred and thirty-six oligonucleotides for targeting DMPK were generated using in silico analysis. Each individual oligonucleotide was evaluated for their ability to target DMPK in cellulo at two doses—0.5 nM (low dose) and 50 nM (high dose).\nBriefly, DM1 C15 immortalized myoblasts were cultured in T-75 flasks until near confluency (˜80% confluent). Myoblasts were then disrupted with trypsin and seeded into 96-well microplates at a density of 50,000 cells/well. Cells were allowed to recover overnight before the growth media was washed out and replaced with a no-serum media to induce differentiation into myotubes. Differentiation proceeded for seven days prior to treatment with DMPK-targeting oligonucleotides.\nOn day seven following induction of differentiation, DM1 C15 myotubes were transfected with an individual oligonucleotide using 0.3 μL of Lipofectamine MessengerMax per well. All oligonucleotides were tested at both 0.5 nM and 50 nM final concentrations in biological triplicates. After treatment with oligonucleotides, cells were incubated for 72 hours prior to being harvested for total RNA. cDNA was synthesized from the total RNA extracts and qPCR was performed to determine expression levels of DMPK in technical quadruplicate. All qPCR data were analyzed using a traditional […] method and were normalized to a plate-based negative control that comprised cells treated with vehicle control (0.3 μL/well Lipofectamine MessengerMax without any oligonucleotide). Results from these experiments are shown in Table 10. ‘Normalized DMPK Remaining’ for each antisense oligonucleotide in Table 10 refers to the expression level of DMPK in cell treated with said antisense oligonucleotide relative to the negative control that comprised cells treated with vehicle control (wherein the expression level of the negative control has been normalized to equal 1.00)", "data": [{"substance": "334 (CCAUGACAAUCUCCGCCAGG; chemistry not given here) [compound 334]", "values": [{"measurement": "Percent DMPK Reduction", "setting": "0.5 nM oligonucleotide", "value": 34.53, "unit": "%"}, {"measurement": "Normalized DMPK Remaining", "setting": "0.5 nM oligonucleotide", "value": 0.65}, {"measurement": "Percent DMPK Reduction", "setting": "50 nM oligonucleotide", "value": 76.46, "unit": "%"}, {"measurement": "Normalized DMPK Remaining", "setting": "50 nM oligonucleotide", "value": 0.24}]}, {"substance": "335 (UCCCCAAACUUGCUCAGCAG; chemistry not given here) [compound 335]", "values": [{"measurement": "Percent DMPK Reduction", "setting": "0.5 nM oligonucleotide", "value": 5.73, "unit": "%"}, {"measurement": "Normalized DMPK Remaining", "setting": "0.5 nM oligonucleotide", "value": 0.94}, {"measurement": "Percent DMPK Reduction", "setting": "50 nM oligonucleotide", "value": 44.67, "unit": "%"}, {"measurement": "Normalized DMPK Remaining", "setting": "50 nM oligonucleotide", "value": 0.55}]}, {"substance": "336 (GAUGUUGUCGGGUUUGAUGU; chemistry not given here) [compound 336]", "values": [{"measurement": "Percent DMPK Reduction", "setting": "0.5 nM oligonucleotide", "value": 10.06, "unit": "%"}, {"measurement": "Normalized DMPK Remaining", "setting": "0.5 nM oligonucleotide", "value": 0.90}, {"measurement": "Percent DMPK Reduction", "setting": "50 nM oligonucleotide", "value": 42.42, "unit": "%"}, {"measurement": "Normalized DMPK Remaining", "setting": "50 nM oligonucleotide", "value": 0.58}]}, {"substance": "337 (GUUUGCCCAUCCACGUCAGG; chemistry not given here) [compound 337]", "values": [{"measurement": "Percent DMPK Reduction", "setting": "0.5 nM oligonucleotide", "value": 34.36, "unit": "%"}, {"measurement": "Normalized DMPK Remaining", "setting": "0.5 nM oligonucleotide", "value": 0.66}, {"measurement": "Percent DMPK Reduction", "setting": "50 nM oligonucleotide", "value": 54.49, "unit": "%"}, {"measurement": "Normalized DMPK Remaining", "setting": "50 nM oligonucleotide", "value": 0.46}]}, {"substance": "338 (CGGACGGCCCGGCUUGCUGC; chemistry not given here) [compound 338]", "values": [{"measurement": "Percent DMPK Reduction", "setting": "0.5 nM oligonucleotide", "value": 5.42, "unit": "%"}, {"measurement": "Normalized DMPK Remaining", "setting": "0.5 nM oligonucleotide", "value": 0.95}, {"measurement": "Percent DMPK Reduction", "setting": "50 nM oligonucleotide", "value": 30.41, "unit": "%"}, {"measurement": "Normalized DMPK Remaining", "setting": "50 nM oligonucleotide", "value": 0.70}]}, {"substance": "339 (CUCCGCCAGGUAGAAGCGCG; chemistry not given here) [compound 339]", "values": [{"measurement": "Percent DMPK Reduction", "setting": "0.5 nM oligonucleotide", "value": 30.22, "unit": "%"}, {"measurement": "Normalized DMPK Remaining", "setting": "0.5 nM oligonucleotide", "value": 0.70}, {"measurement": "Percent DMPK Reduction", "setting": "50 nM oligonucleotide", "value": 78.14, "unit": "%"}, {"measurement": "Normalized DMPK Remaining", "setting": "50 nM oligonucleotide", "value": 0.22}]}, {"substance": "340 (GUACAGGUAGUUCUCAUCCU; chemistry not given here) [compound 340]", "values": [{"measurement": "Percent DMPK Reduction", "setting": "0.5 nM oligonucleotide", "value": 31.52, "unit": "%"}, {"measurement": "Normalized DMPK Remaining", "setting": "0.5 nM oligonucleotide", "value": 0.68}, {"measurement": "Percent DMPK Reduction", "setting": "50 nM oligonucleotide", "value": 65.57, "unit": "%"}, {"measurement": "Normalized DMPK Remaining", "setting": "50 nM oligonucleotide", "value": 0.34}]}, {"substance": "341 (AGGGCGUCUGCCCAUAGAAC; chemistry not given here) [compound 341]", "values": [{"measurement": "Percent DMPK Reduction", "setting": "0.5 nM oligonucleotide", "value": 13.23, "unit": "%"}, {"measurement": "Normalized DMPK Remaining", "setting": "0.5 nM oligonucleotide", "value": 0.87}, {"measurement": "Percent DMPK Reduction", "setting": "50 nM oligonucleotide", "value": 58.98, "unit": "%"}, {"measurement": "Normalized DMPK Remaining", "setting": "50 nM oligonucleotide", "value": 0.41}]}, {"substance": "342 (UGGCCACAGCGGUCCAGCAG; chemistry not given here) [compound 342]", "values": [{"measurement": "Percent DMPK Reduction", "setting": "0.5 nM oligonucleotide", "value": 29.59, "unit": "%"}, {"measurement": "Normalized DMPK Remaining", "setting": "0.5 nM oligonucleotide", "value": 0.70}, {"measurement": "Percent DMPK Reduction", "setting": "50 nM oligonucleotide", "value": 69.44, "unit": "%"}, {"measurement": "Normalized DMPK Remaining", "setting": "50 nM oligonucleotide", "value": 0.31}]}, {"substance": "343 (CGUAGUUGACUGGCGAAGUU; chemistry not given here) [compound 343]", "values": [{"measurement": "Percent DMPK Reduction", "setting": "0.5 nM oligonucleotide", "value": 25.26, "unit": "%"}, {"measurement": "Normalized DMPK Remaining", "setting": "0.5 nM oligonucleotide", "value": 0.75}, {"measurement": "Percent DMPK Reduction", "setting": "50 nM oligonucleotide", "value": 61.52, "unit": "%"}, {"measurement": "Normalized DMPK Remaining", "setting": "50 nM oligonucleotide", "value": 0.38}]}, {"substance": "344 (UCUGCCGCAGGGACAGCCGC; chemistry not given here) [compound 344]", "values": [{"measurement": "Percent DMPK Reduction", "setting": "0.5 nM oligonucleotide", "value": 22.97, "unit": "%"}, {"measurement": "Normalized DMPK Remaining", "setting": "0.5 nM oligonucleotide", "value": 0.77}, {"measurement": "Percent DMPK Reduction", "setting": "50 nM oligonucleotide", "value": 82.10, "unit": "%"}, {"measurement": "Normalized DMPK Remaining", "setting": "50 nM oligonucleotide", "value": 0.18}]}, {"substance": "345 (AAGCGCCUCCGAUAGGCCAG; chemistry not given here) [compound 345]", "values": [{"measurement": "Percent DMPK Reduction", "setting": "0.5 nM oligonucleotide", "value": 8.91, "unit": "%"}, {"measurement": "Normalized DMPK Remaining", "setting": "0.5 nM oligonucleotide", "value": 0.91}, {"measurement": "Percent DMPK Reduction", "setting": "50 nM oligonucleotide", "value": 43.93, "unit": "%"}, {"measurement": "Normalized DMPK Remaining", "setting": "50 nM oligonucleotide", "value": 0.56}]}, {"substance": "347 (GCUCAGCAGUGUCAGCAGGU; chemistry not given here) [compound 347]", "values": [{"measurement": "Percent DMPK Reduction", "setting": "0.5 nM oligonucleotide", "value": 29.18, "unit": "%"}, {"measurement": "Normalized DMPK Remaining", "setting": "0.5 nM oligonucleotide", "value": 0.71}, {"measurement": "Percent DMPK Reduction", "setting": "50 nM oligonucleotide", "value": 73.46, "unit": "%"}, {"measurement": "Normalized DMPK Remaining", "setting": "50 nM oligonucleotide", "value": 0.27}]}, {"substance": "348 (AUGAUCUUCAUGGCAUACAC; chemistry not given here) [compound 348]", "values": [{"measurement": "Percent DMPK Reduction", "setting": "0.5 nM oligonucleotide", "value": 12.76, "unit": "%"}, {"measurement": "Normalized DMPK Remaining", "setting": "0.5 nM oligonucleotide", "value": 0.87}, {"measurement": "Percent DMPK Reduction", "setting": "50 nM oligonucleotide", "value": 39.97, "unit": "%"}, {"measurement": "Normalized DMPK Remaining", "setting": "50 nM oligonucleotide", "value": 0.60}]}, {"substance": "349 (UUUGCCCAUCCACGUCAGGG; chemistry not given here) [compound 349]", "values": [{"measurement": "Percent DMPK Reduction", "setting": "0.5 nM oligonucleotide", "value": 32.79, "unit": "%"}, {"measurement": "Normalized DMPK Remaining", "setting": "0.5 nM oligonucleotide", "value": 0.67}, {"measurement": "Percent DMPK Reduction", "setting": "50 nM oligonucleotide", "value": 59.36, "unit": "%"}, {"measurement": "Normalized DMPK Remaining", "setting": "50 nM oligonucleotide", "value": 0.41}]}, {"substance": "350 (ACUUGCUCAGCAGUGUCAGC; chemistry not given here) [compound 350]", "values": [{"measurement": "Percent DMPK Reduction", "setting": "0.5 nM oligonucleotide", "value": 27.84, "unit": "%"}, {"measurement": "Normalized DMPK Remaining", "setting": "0.5 nM oligonucleotide", "value": 0.72}, {"measurement": "Percent DMPK Reduction", "setting": "50 nM oligonucleotide", "value": 60.71, "unit": "%"}, {"measurement": "Normalized DMPK Remaining", "setting": "50 nM oligonucleotide", "value": 0.39}]}, {"substance": "351 (UGAUGUCCCUGUGCACGUAG; chemistry not given here) [compound 351]", "values": [{"measurement": "Percent DMPK Reduction", "setting": "0.5 nM oligonucleotide", "value": 20.58, "unit": "%"}, {"measurement": "Normalized DMPK Remaining", "setting": "0.5 nM oligonucleotide", "value": 0.79}, {"measurement": "Percent DMPK Reduction", "setting": "50 nM oligonucleotide", "value": 59.00, "unit": "%"}, {"measurement": "Normalized DMPK Remaining", "setting": "50 nM oligonucleotide", "value": 0.41}]}, {"substance": "352 (AAAUACCGAGGAAUGUCGGG; chemistry not given here) [compound 352]", "values": [{"measurement": "Percent DMPK Reduction", "setting": "0.5 nM oligonucleotide", "value": 11.25, "unit": "%"}, {"measurement": "Normalized DMPK Remaining", "setting": "0.5 nM oligonucleotide", "value": 0.89}, {"measurement": "Percent DMPK Reduction", "setting": "50 nM oligonucleotide", "value": 50.91, "unit": "%"}, {"measurement": "Normalized DMPK Remaining", "setting": "50 nM oligonucleotide", "value": 0.49}]}]}
